This is an account of results in US11241436B2, “Autophagy inducers for treatment of CNS conditions” (Northwestern University, priority 2017, dated 2022).

Read-outs that look alike come from different tables or passages of the source.

The subject of data set [1] is Hela cells stably expressing GFP-LC3. Nature of the data set: GFP-LC3 puncta in Hela cells stably expressing GFP-LC3, with or without bafilomycin A1. It counts as cell-based. The conditions noted are these: for numbers of GFP-LC3 puncta (autophagosomes): Hela cells, normal medium, compared with starvation; for accumulation of GFP-LC3 puncta, LC3-II and p62 (autophagic flux): co-treated with lysosomal inhibitor bafilomycin A1, compared to normal conditions. The text has this:
Results represent mean±s.e.m. Statistics are comparing the indicated value with or without BafA 1 to the one under the normal condition.
Accordingly, an important translational question is how to reduce Beclin 2 activity to maintain CB sensitivity and prevent drug tolerance induced by repeated cannabinoid exposure. To avoid the technical difficulty and risk of directly deleting Beclin 2 in vivo (such as injecting shRNAs or CRISPR/Cas9 constructs), which may disrupt Beclin 2-regulated autophagy, a novel and more convenient strategy to achieve the same goal via modulating the Beclin 2 interactome was developed and tested, which will not affect the essential autophagy function of Beclin 2 (FIG. 6A). Beclin 2 is present in two distinct protein complex pools, the Beclin 2-class Ill phosphatidylinositol 3-kinase complex for autophagy, and the Beclin 2-GASP1-GPCR complex in which Beclin 2-GASP1 binding is required for GPCR degradation. Thus, it was hypothesized that Beclin 2 is a limiting factor that regulates the balance between the two lysosomal degradation pathways, and that competitive recruitment of Beclin 2 to the autophagy machinery by activating autophagy prevents it from functioning in CB1R downregulation and thus restores CB1R functionality and reverses drug tolerance. To test this hypothesis, whether autophagy activation by brain-penetrable inducers inhibits the Beclin 2-GASP1 interaction was first examined. […] To determine autophagy activation by the two compounds, several markers of autophagy induction were analyzed, including formation of autophagosomes in cells and transgenic mice expressing GFP-tagged LC3 (an autophagosome marker), degradation of p62 (an autophagy substrate protein), and conversion of LC3 from the non-lipidated form (LC3-1) to the autophagosome-associated lipidated form (LC3-11). […]
To determine autophagy activation by the 2 compounds ML246 and Rg2, several markers of autophagy induction were analyzed, including formation of autophagosomes in cells and transgenic mice expressing GFP-tagged MAP1LC3/LC3 (microtubule-associated protein 1 light chain 3; an autophagosome marker), degradation of SQSTM1/p62 (sequestosome 1; an autophagy receptor and substrate protein), and conversion of LC3 from the non-lipidated form (LC3-I) to the phagophore- and autophagosome-associated lipidated form (LC3-II). […]

In data set [2] the test system is WT primary cortical neurons. Nature of the data set: TUNEL assay of primary cortical neurons treated with conditioned media of APP-HEK293 cells. It counts as cell-based, mouse. Here is the method: Nuclei were stained with DAPI. Scale bar, 100 μm. N=10 fields (each field containing 20-30 neurons).
TUNEL assays. APP-HEK293 cells were cultured in 6-well dishes for 24 h and then the media was replaced with neuronal culture media. After 48 h, conditioned media was collected and used to treat primary cortical neurons (12 DIV) cultured on poly-L-lysine coated slides for another 24 h. Apoptotic neurons were detected by the In Situ Cell Death Detection Kit, TMR red (Roche, cat. #12156792910) according to the manufacturer's instructions. Nuclei were stained using the mounting medium containing DAPI (Vectashield). Quantification of red TUNEL-positive neurons was done using the NIS Elements software.

In data set [3] the test system is HEK293 cells stably expressing APP. Nature of the data set: Dot blot of secreted Aβ42 in conditioned media of APP-HEK293 cells. It counts as cell-based, human. As for the experimental part:
Cells were transfected with non-targeting control (NC) or ATG7 siRNA 24 h prior to ML246 treatment. Results are quantified from 4 independent experiments.
In addition to Becn2^F121A-mediated genetic activation of autophagy, it was decided to further study whether stimulating autophagy pharmacologically is also protective against neurodegenerative progression. A brain-penetrable autophagy-inducing small molecule ML246 (metarrestin) was recently identified, and analyzed its effects on the clearance of aggregate-prone proteins in vitro and in vivo. For in vitro analyses, the HEK293 cell line stably expressing APP (APP-HEK293) was utilized, in which the produced Aβ molecules are efficiently secreted, to study the effect of ML246 on amyloid metabolism. […] In addition, cultured WT primary cortical neurons treated with the conditioned media from ML246-treated APP-HEK293 cells underwent a lower level of apoptotic cell death than those treated with media from vehicle-treated APP-HEK293 cells (FIG. 18B).
Dot blot assay. […] Protein concentration was quantified using BCA Assay (Pierce). […] The membrane was stained with Ponceau S, and the dot blot signal on the membrane was detected by immunostaining with Aβ42 antibody (Invitrogen, 700254, 1:1000) and HRP-conjugated secondary antibody (Santa Cruz Biotechnology, sc2004, 1:2000). […]

For data set [4], the system named is 5XFAD mice. Nature of the data set: Contextual fear conditioning test of 5XFAD mice. It counts as in vivo, mouse. The following applies: Rg2 for 4 months. As for the experimental part: Fear conditioning training exposed mice to 2-s electrical foot shocks separated by 1-min interval through a grid floor at the bottom of the chamber. On the following day, the mice were returned to the same chamber and their movements were recorded with a video camera to test for contextual conditioning. Freezing (very low levels of movement) in the training environment indicate context-associated fear. WT mice without APP transgene were used as negative control in the above studies. N=8. *, P<0.05; **, P<0.01, t test.

For data set [5] the following is noted: mouse.
The conditions of data set [6]: mouse, in vivo.
Data set [7] has as its system HeLa cell lines expressing HTT.
The subject of data set [8] is 5XFAD mice. Nature of the data set: Open-field test of 5XFAD mice. The conditions noted are these: Rg2-treated vs vehicle-treated 5XFAD mice. Type of data set: in vivo, mouse.

For `N=c1c2c(-c3ccccc3)c(-c3ccccc3)n(Cc3ccccc3)c2ncn1[C@H]1CC[C@H](O)CC1` [ML246], in data set [1], the “numbers of GFP-LC3 puncta (autophagosomes)” value is given as “markedly increased”; the “accumulation of GFP-LC3 puncta, LC3-II and p62 (autophagic flux)” value was “more accumulation”. Besides, the “apoptotic cell death of neurons” value in data set [2] (conditioned media from ML246-treated APP-HEK293 cells vs vehicle-treated) is given as “lower level”. Further, in data set [2] (siRNA knockdown of ATG7 in APP-HEK293 cells), the “ML246-mediated reduction of apoptotic neuronal death” value is given as “reversed”. Also, the “level of secreted Aβ in the conditioned media” value in data set [3] (APP-HEK293 cells, 24 h) is reported as “significantly reduced”. The “ML246-mediated reduction of secreted Aβ42” value in data set [3] (siRNA knockdown of ATG7) is “reversed”.

In the case of `CC(C)=CCC[C@](C)(O)[C@H]1CC[C@]2(C)[C@@H]1[C@H](O)C[C@@H]1[C@@]3(C)CC[C@H](O)C(C)(C)[C@@H]3[C@@H](O[C@@H]3O[C@H](CO)[C@@H](O)[C@H](O)[C@H]3O[C@@H]3O[C@@H](C)[C@H](O)[C@@H](O)[C@H]3O)C[C@]12C` [Rg2, ginsenoside Rg2], the “freezing responses (contextual fear memory)” value with 5XFAD mice [4] is “rescued the freezing responses”. In data set [1], the “numbers of GFP-LC3 puncta (autophagosomes)” value was “markedly increased”. The “accumulation of GFP-LC3 puncta, LC3-II and p62 (autophagic flux)” value in data set [1] was “more accumulation”. For the same compound, the “percentage bound by plasma protein” value in data set [5] (10 μg/ml) is listed as “approximately 42%”; in data set [5] (50 μg/ml) it was ~24%; in data set [5] (100 μg/ml), ~15%. Besides, the food intake entry in data set [6] is “does not alter”. The cell viability result in data set [7] is reported as “grew as well as the control cells”. In addition, the “locomotor activity (distance travelled)” value with 5XFAD mice [8] is given as “no rescue”.
